The assay addresses T1, APOL1 (Homo sapiens, UniProt O14791).
T1 sequence (O14791 1-398 S342G/I384M): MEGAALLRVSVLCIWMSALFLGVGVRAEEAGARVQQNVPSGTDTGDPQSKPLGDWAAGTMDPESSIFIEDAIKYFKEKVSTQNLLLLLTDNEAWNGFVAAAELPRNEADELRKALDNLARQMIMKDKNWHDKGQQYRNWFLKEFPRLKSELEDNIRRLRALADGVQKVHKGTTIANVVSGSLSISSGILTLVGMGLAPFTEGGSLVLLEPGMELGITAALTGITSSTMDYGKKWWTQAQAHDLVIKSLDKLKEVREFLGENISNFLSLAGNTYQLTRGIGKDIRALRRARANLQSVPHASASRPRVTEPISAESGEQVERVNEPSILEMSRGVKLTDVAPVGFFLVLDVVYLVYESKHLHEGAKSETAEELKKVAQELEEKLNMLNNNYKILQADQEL
As to the kind of experiment: Multi-Tox Assay (MultiTox-Fluor Multiplex Cytotoxicity Assay in tet-inducible APOL1 T-REx-HEK293 cells; Table 46 does not say which APOL1 variant G0/G1/G2). Type of assay: cell-based. The conditions noted are these: APOL1 variant not given; for IC50: IP50 = IC50 for cell proliferation.

In the case of `Cc1ccccc1C(O)Cn1cc([C@@H]2C[C@]3(C[C@H](C)N2)OC[C@@H](O)c2cc(Cl)sc23)nn1` (some centres unmarked) [Compound 261], the “Multi-Tox Assay Max Activity (%)” value worked out at 100.0% and the IC50 was 50 to 500 nM. Regarding `C[C@H]1C[C@@]2(C[C@@H](c3cn(CCc4ccncn4)nn3)N1)OC[C@@H](O)c1cc(Cl)sc12` [Compound 262], the “Multi-Tox Assay Max Activity (%)” value came to 99.0% and the IC50 lay in the range of 50 to 500 nM. The molecule `COC(=O)Cn1cc([C@@H]2C[C@]3(C[C@H](C)N2)OC[C@@H](O)c2cc(Cl)sc23)nn1` [Compound 263] showed an IC50 above 500 nM. As to `CC(CO)CCn1cc([C@@H]2C[C@]3(C[C@H](C)N2)OC[C@@H](O)c2cc(Cl)sc23)nn1` (some centres unmarked) [Compound 264], the “Multi-Tox Assay Max Activity (%)” value was 100.0% and the half-inhibitory concentration (IC50) was below 50 nM. As for `C[C@H]1C[C@@]2(C[C@@H](c3cn(CC4CCS(=O)(=O)C4)nn3)N1)OC[C@@H](O)c1cc(Cl)sc12` (some centres unmarked) [Compound 265], the “Multi-Tox Assay Max Activity (%)” value worked out at 99.0% and the half-maximal inhibitory concentration (IC50) was in the range of 50 to 500 nM. On the same counts, the results for `C[C@H]1C[C@@]2(C[C@@H](c3cn(Cc4ccc(OC5CCOCC5)cc4)nn3)N1)OC[C@@H](O)c1cc(Cl)sc12` [Compound 266] are 100.0% and below 50 nM. On the same counts, the results for `C[C@H]1C[C@@]2(C[C@@H](c3cn(CC4CCOCC4)nn3)N1)OC[C@@H](O)c1cc(Cl)sc12` [Compound 267] are 99.0% and 50 to 500 nM. On the same counts, the results for `C[C@H]1C[C@@]2(C[C@@H](c3cn(Cc4cccc5c4OCCO5)nn3)N1)OC[C@@H](O)c1cc(Cl)sc12` [Compound 268] are 99.0% and 50 to 500 nM.

With `C[C@H]1C[C@@]2(C[C@@H](c3cn(CC4CCOC4)nn3)N1)OC[C@@H](O)c1cc(Cl)sc12` (some centres unmarked) [Compound 269], the “Multi-Tox Assay Max Activity (%)” value is recorded as 99.0% and the IC50 lay within 50 to 500 nM.

With `COCC1(Cn2cc([C@@H]3C[C@]4(C[C@H](C)N3)OC[C@@H](O)c3cc(Cl)sc34)nn2)CC1` [Compound 270], the “Multi-Tox Assay Max Activity (%)” value was 93.0% and the IC50 was in the range of 50 to 500 nM. On to `C[C@H]1C[C@@]2(C[C@@H](c3cn(Cc4cccc(CO)c4)nn3)N1)OC[C@@H](O)c1cc(Cl)sc12` [Compound 271], for which the “Multi-Tox Assay Max Activity (%)” value turned out to be 97.0% and the IC50 was below 50 nM. Turning to `Cc1nnc(Cn2cc([C@@H]3C[C@]4(C[C@H](C)N3)OC[C@@H](O)c3cc(Cl)sc34)nn2)[nH]1` [Compound 272], the “Multi-Tox Assay Max Activity (%)” value was found to be 95.0% and the IC50 lay within 50 to 500 nM.

`C[C@H]1C[C@@]2(C[C@@H](c3cn(CCC4CCCOC4)nn3)N1)OC[C@@H](O)c1cc(Cl)sc12` (some centres unmarked) [Compound 273] yielded a concentration for half-maximal inhibition (IC50) below 50 nM. For `Cc1ccnn1CCn1cc([C@@H]2C[C@]3(C[C@H](C)N2)OC[C@@H](O)c2cc(Cl)sc23)nn1` [Compound 274], the “Multi-Tox Assay Max Activity (%)” value was found to be 97.0% and the IC50 was 50 to 500 nM. On to `C[C@H]1C[C@@]2(C[C@@H](c3cn(Cc4ccc(O)nc4)nn3)N1)OC[C@@H](O)c1cc(Cl)sc12` [Compound 275], for which the “Multi-Tox Assay Max Activity (%)” value worked out at 94.0% and the half-inhibitory concentration (IC50) fell in the range of 50 to 500 nM. On to `C[C@H]1C[C@@]2(C[C@@H](c3cn(Cc4cnccn4)nn3)N1)OC[C@@H](O)c1cc(Cl)sc12` [Compound 276], for which the “Multi-Tox Assay Max Activity (%)” value is on record as 100.0% and the IC50 lay in the range of 50 to 500 nM. On to `Cc1ncc(Cn2cc([C@@H]3C[C@]4(C[C@H](C)N3)OC[C@@H](O)c3cc(Cl)sc34)nn2)cn1` [Compound 277], for which the “Multi-Tox Assay Max Activity (%)” value is listed as 100.0% and the IC50 was below 50 nM.

With `COc1cccc(Cn2cc([C@@H]3C[C@]4(C[C@H](C)N3)OC[C@@H](O)c3cc(Cl)sc34)nn2)c1` [Compound 278], the “Multi-Tox Assay Max Activity (%)” value amounted to 100.0% and the IC50 was below 50 nM. Take `C[C@H]1C[C@@]2(C[C@@H](c3cn(Cc4cccc(O)c4)nn3)N1)OC[C@@H](O)c1cc(Cl)sc12` [Compound 279]: the “Multi-Tox Assay Max Activity (%)” value turned out to be 97.0% and the IC50 was in the range of 50 to 500 nM. Turning to `C[C@H]1C[C@@]2(C[C@@H](c3cn(Cc4cccnn4)nn3)N1)OC[C@@H](O)c1cc(Cl)sc12` [Compound 280], the “Multi-Tox Assay Max Activity (%)” value is given as 99.0% and the IC50 is 50 to 500 nM.

As to `C[C@H]1C[C@@]2(C[C@@H](c3cn(CC(O)c4ccccc4)nn3)N1)OC[C@@H](O)c1cc(Cl)sc12` (some centres unmarked) [Compound 281], the “Multi-Tox Assay Max Activity (%)” value is reported as 99.0% and the IC50 fell in the range of 50 to 500 nM.

`COCCn1cc([C@@H]2C[C@]3(C[C@H](C)N2)OC[C@@H](O)c2cc(Cl)sc23)nn1` [Compound 282]: the “Multi-Tox Assay Max Activity (%)” value is on record as 99.0% and the IC50 is below 50 nM.

Regarding `C[C@H]1C[C@@]2(C[C@@H](c3cn(CC(F)F)nn3)N1)OC[C@@H](O)c1cc(Cl)sc12` [Compound 283], the 50% inhibitory concentration (IC50) lay in the range of 50 to 500 nM. With `CCC(O)Cn1cc([C@@H]2C[C@]3(C[C@H](C)N2)OC[C@@H](O)c2cc(Cl)sc23)nn1` (some centres unmarked) [Compound 284], the IC50 fell in the range of 50 to 500 nM. For the molecule `Cc1c(Cn2cc([C@@H]3C[C@]4(C[C@H](C)N3)OC[C@@H](O)c3cc(Cl)sc34)nn2)cnn1C` [Compound 285], the “Multi-Tox Assay Max Activity (%)” value is recorded as 98.0% and the IC50 lay within 50 to 500 nM. Turning to `C[C@H]1C[C@@]2(C[C@@H](c3cn(CCC#N)nn3)N1)OC[C@@H](O)c1cc(Cl)sc12` [Compound 286], the “Multi-Tox Assay Max Activity (%)” value was 98.0% and the IC50 was below 50 nM. For `CC(C)N1CC(Cn2cc([C@@H]3C[C@]4(C[C@H](C)N3)OC[C@@H](O)c3cc(Cl)sc34)nn2)CC1=O` (some centres unmarked) [Compound 287] the same measures were 96.0% and 50 to 500 nM. `C[C@H]1C[C@@]2(C[C@@H](c3cn(CCC(N)=O)nn3)N1)OC[C@@H](O)c1cc(Cl)sc12` [Compound 288]: the “Multi-Tox Assay Max Activity (%)” value amounted to 97.0% and the IC50 was in the range of 50 to 500 nM.

For the molecule `C[C@H]1C[C@@]2(C[C@@H](c3cn(CC4(F)CCOCC4)nn3)N1)OC[C@@H](O)c1cc(Cl)sc12` [Compound 289], the IC50 is above 500 nM. With `CCn1cc(Cn2cc([C@@H]3C[C@]4(C[C@H](C)N3)OC[C@@H](O)c3cc(Cl)sc34)nn2)cn1` [Compound 290], the “Multi-Tox Assay Max Activity (%)” value is 99.0% and the IC50 is 50 to 500 nM. On the same counts, the results for `C[C@H]1C[C@@]2(C[C@@H](c3cn(Cc4cocn4)nn3)N1)OC[C@@H](O)c1cc(Cl)sc12` [Compound 291] are 100.0% and 50 to 500 nM. As to `C[C@H]1C[C@@]2(C[C@@H](c3cn(Cc4ccccn4)nn3)N1)OC[C@@H](O)c1cc(Cl)sc12` [Compound 292], the “Multi-Tox Assay Max Activity (%)” value came out at 99.0% and the IC50 lay in the range of 50 to 500 nM.

As for `COc1cc(F)cc(Cn2cc([C@@H]3C[C@]4(C[C@H](C)N3)OC[C@@H](O)c3cc(Cl)sc34)nn2)c1` [Compound 293], the “Multi-Tox Assay Max Activity (%)” value is 100.0% and the IC50 is below 50 nM. Turning to `Cc1ccc(Cn2cc([C@@H]3C[C@]4(C[C@H](C)N3)OC[C@@H](O)c3cc(Cl)sc34)nn2)nc1` [Compound 294], the “Multi-Tox Assay Max Activity (%)” value came to 100.0% and the IC50 is 50 to 500 nM. For `COc1ccc(Cn2cc([C@@H]3C[C@]4(C[C@H](C)N3)OC[C@@H](O)c3cc(Cl)sc34)nn2)cc1` [Compound 295], the “Multi-Tox Assay Max Activity (%)” value amounted to 99.0% and the IC50 was below 50 nM.

As a reminder, the IC50 is the concentration needed to halve the response being measured.

The values above are taken from patent US12421249B2, “Inhibitors of APOL1 and methods of using same” (Vertex Pharmaceuticals Incorporated, priority 2020, dated 2025).
